The values that follow come from patent US20070232601A1, “Vla-4 Inhibitor” (priority 2004, published 2007).

In series [1] the target is T1, hα4 and β1 integrins (VLA-4) (Homo sapiens, UniProt P05556+P13612).
T1 construct: expressed in transfected cells; host or cells: CHO cells
The series can be described thus: In vitro evaluation: inhibition of binding of CHO cells expressing hα4 and β1 integrins to Eu3+-hVCAM-1 D1D7-IgG. The settings on record: ligand Eu3+-hVCAM-1 D1D7-IgG 2 nM, Ki calculated from IC50. An outline of the steps: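 CHO cells stably expressing hα4β1 were cultured 2 days, then incubated 1 h at room temperature with Eu3+-hVCAM-1 D1D7-IgG (added as 2 nM solution) and compound in HEPES pH 7.5 with Ca2+, Mg2+ and 4 mM Mn2+, ± 6% human serum albumin. Bound europium was read by time-resolved fluorescence; IC50 was converted to Ki using Scatchard-derived Kd.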

A short description of series [2]: Dispersibility test in Japanese Pharmacopoeia First and Second Solution. In kind it is physicochemical. To be noted: for Dispersibility in Japanese Pharmacopoeia First Solution: JP1, pH 1.2; for Dispersibility in Japanese Pharmacopoeia Second Solution: JP2, pH 6.8. Here is the method:
Dispersibility of a test substance in Japanese Pharmacopoeia First Solution (JP1, pH 1.2) and Japanese Pharmacopoeia Second Solution (JP2, pH 6.8) was evaluated.

T1 sequence (P13612 34-1032): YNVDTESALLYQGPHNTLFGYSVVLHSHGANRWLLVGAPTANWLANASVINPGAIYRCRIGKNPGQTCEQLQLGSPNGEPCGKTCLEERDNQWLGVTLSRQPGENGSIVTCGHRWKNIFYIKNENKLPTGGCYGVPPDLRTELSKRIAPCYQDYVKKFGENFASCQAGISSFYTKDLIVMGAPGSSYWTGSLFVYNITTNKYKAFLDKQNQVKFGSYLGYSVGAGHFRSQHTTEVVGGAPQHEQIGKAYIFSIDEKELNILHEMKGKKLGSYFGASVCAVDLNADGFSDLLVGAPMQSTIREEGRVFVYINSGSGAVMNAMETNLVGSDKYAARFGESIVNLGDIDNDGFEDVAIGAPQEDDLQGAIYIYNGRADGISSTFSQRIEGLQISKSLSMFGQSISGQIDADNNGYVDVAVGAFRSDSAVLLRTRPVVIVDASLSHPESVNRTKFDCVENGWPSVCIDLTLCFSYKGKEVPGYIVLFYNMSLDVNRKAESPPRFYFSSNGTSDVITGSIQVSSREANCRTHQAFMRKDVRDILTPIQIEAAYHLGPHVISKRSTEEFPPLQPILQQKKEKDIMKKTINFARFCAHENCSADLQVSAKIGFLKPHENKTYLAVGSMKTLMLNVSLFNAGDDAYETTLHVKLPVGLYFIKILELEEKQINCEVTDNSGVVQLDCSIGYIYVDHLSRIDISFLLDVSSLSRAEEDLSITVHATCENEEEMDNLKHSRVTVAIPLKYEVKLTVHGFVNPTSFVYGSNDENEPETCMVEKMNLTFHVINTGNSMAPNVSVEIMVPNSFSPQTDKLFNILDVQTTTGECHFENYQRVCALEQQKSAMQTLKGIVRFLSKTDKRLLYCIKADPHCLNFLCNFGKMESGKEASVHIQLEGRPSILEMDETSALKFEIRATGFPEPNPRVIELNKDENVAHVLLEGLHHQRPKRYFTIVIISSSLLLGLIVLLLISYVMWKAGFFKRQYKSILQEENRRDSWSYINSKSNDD
T1 sequence (P05556 21-798): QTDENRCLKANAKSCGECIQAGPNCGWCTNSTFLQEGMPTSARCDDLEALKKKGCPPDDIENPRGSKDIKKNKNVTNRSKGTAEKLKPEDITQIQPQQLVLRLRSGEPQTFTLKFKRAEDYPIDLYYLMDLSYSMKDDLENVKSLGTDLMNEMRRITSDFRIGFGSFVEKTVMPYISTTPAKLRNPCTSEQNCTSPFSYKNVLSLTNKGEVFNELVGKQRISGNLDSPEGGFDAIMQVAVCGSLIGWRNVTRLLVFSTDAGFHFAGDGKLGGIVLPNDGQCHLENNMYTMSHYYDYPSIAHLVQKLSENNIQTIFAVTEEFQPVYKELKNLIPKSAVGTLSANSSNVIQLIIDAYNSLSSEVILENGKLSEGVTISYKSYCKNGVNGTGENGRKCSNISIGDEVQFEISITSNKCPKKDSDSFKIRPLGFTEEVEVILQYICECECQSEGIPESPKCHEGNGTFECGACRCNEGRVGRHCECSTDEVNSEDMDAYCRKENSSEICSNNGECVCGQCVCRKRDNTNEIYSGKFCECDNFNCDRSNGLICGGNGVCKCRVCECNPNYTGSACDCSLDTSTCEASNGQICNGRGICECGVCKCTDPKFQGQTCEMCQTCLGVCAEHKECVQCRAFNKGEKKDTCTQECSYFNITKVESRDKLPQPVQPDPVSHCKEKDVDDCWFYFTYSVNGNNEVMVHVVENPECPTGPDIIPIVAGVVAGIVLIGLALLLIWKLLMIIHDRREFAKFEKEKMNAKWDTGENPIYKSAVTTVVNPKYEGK

As for `O=C(O)CCc1cnc([C@@H]2C[C@H](N3CCC(F)(F)CC3)CN2C(=O)Cc2cc(Cl)c(NC(=O)c3coc4ccccc34)cc2Cl)s1` [Example 78, 3-[2-[1-[4-(3-Benzo[b]furanylcarbonylamino)-2,5-dichlorophenylacetyl]-(4S)-[1-(4,4-difluoro)piperidinyl]-(2S)-pyrrolidinyl]-5-thiazolyl]propionic acid], in series [1], the Ki (in general, the dissociation constant of the complex between target and ligand, obtained from inhibition or displacement) is 1.2 nM. In addition, in series [2], the “Dispersibility in Japanese Pharmacopoeia First Solution” value was determined as 260 µg/mL and the “Dispersibility in Japanese Pharmacopoeia Second Solution” value is 230 µg/mL.
Regarding `Cn1cc(C(=O)Nc2cc(F)c(CC(=O)N3C[C@@H](N4CCN(CC(F)(F)F)CC4)C[C@H]3c3ncc(CCC(=O)O)s3)cc2Cl)c2ccccc21` [Example 79, 3-[2-[1-[5-Chloro-2-fluoro-4-(1-methyl-3-indolylcarbonylamino)phenylacetyl]-(4S)-[1-(4-(2,2,2-trifluoro)ethyl)piperazinyl]-(2S)-pyrrolidinyl]-5-thiazolyl]propionic acid], in series [1], the Ki was 1.5 nM. Besides, in series [2], the “Dispersibility in Japanese Pharmacopoeia First Solution” value was determined as 250 µg/mL and the “Dispersibility in Japanese Pharmacopoeia Second Solution” value was 670 µg/mL.
For `Cn1cc(C(=O)Nc2cc(Cl)c(CC(=O)N3C[C@@H](N4CCN(CC(F)(F)F)CC4)C[C@H]3c3ncc(CCC(=O)O)s3)cc2Cl)c2ccccc21` [Example 80, 3-[2-[1-[2,5-Dichloro-4-(1-methyl-3-indolylcarbonylamino)phenylacetyl]-(4S)-[1-(4-(2,2,2-trifluoro)ethyl)piperazinyl]-(2S)-pyrrolidinyl]-5-thiazolyl]propionic acid], the Ki in series [1] is 2 nM. Also, in series [2], the “Dispersibility in Japanese Pharmacopoeia First Solution” value came to 110 µg/mL and the “Dispersibility in Japanese Pharmacopoeia Second Solution” value was 730 µg/mL.
The corresponding values for `O=C(O)CCc1cnc([C@@H]2C[C@H](N3CCN(CC(F)(F)F)CC3)CN2C(=O)Cc2cc(Cl)c(NC(=O)c3csc4ccccc34)cc2F)s1` [Example 81, 3-[2-[1-[4-(3-Benzo[b]thiophenylcarbonylamino)-5-chloro-2-fluorophenylacetyl]-(4S)-[1-(4-(2,2,2-trifluoro)ethyl)piperazinyl]-(2S)-pyrrolidinyl]-5-thiazolyl]propionic acid] are 1.3 nM, 210 µg/mL and 680 µg/mL.
Take `O=C(O)CCc1cnc([C@@H]2C[C@H](N3CCN(CC(F)(F)F)CC3)CN2C(=O)Cc2cc(Cl)c(NC(=O)c3csc4ccccc34)cc2Cl)s1` [Example 82]: the Ki in series [1] is 1.3 nM. Besides, in series [2], the “Dispersibility in Japanese Pharmacopoeia First Solution” value turned out to be 96 µg/mL and the “Dispersibility in Japanese Pharmacopoeia Second Solution” value was 320 µg/mL.
In the case of `O=C(O)CCc1cnc([C@@H]2C[C@H](N3CCN(CC(F)(F)F)CC3)CN2C(=O)Cc2cc(Cl)c(NC(=O)c3coc4ccccc34)cc2F)s1` [Example 83], in series [1], the inhibition constant Ki was 1.6 nM. In series [2], the “Dispersibility in Japanese Pharmacopoeia First Solution” value amounted to 540 µg/mL and the “Dispersibility in Japanese Pharmacopoeia Second Solution” value was determined as 1000 µg/mL.
With `O=C(O)CCc1cnc([C@@H]2C[C@H](N3CCN(CC(F)(F)F)CC3)CN2C(=O)Cc2cc(Cl)c(NC(=O)c3coc4ccccc34)cc2Cl)s1` [Example 84], in series [1], the inhibition constant (Ki) was 1.5 nM. Moreover, in series [2], the “Dispersibility in Japanese Pharmacopoeia First Solution” value was found to be 280 µg/mL and the “Dispersibility in Japanese Pharmacopoeia Second Solution” value was found to be 760 µg/mL.
Take `C[C@@H]1CN([C@H]2C[C@@H](c3ncc(CCC(=O)O)s3)N(C(=O)Cc3cc(Cl)c(NC(=O)c4cn(C)c5ccccc45)cc3F)C2)C[C@H](C)O1` [Example 85, 3-[2-[1-[5-Chloro-2-fluoro-4-(1-methyl-3-indolylcarbonylamino)phenylacetyl]-(4S)-[4-(cis-2,6-dimethyl)morpholinyl]-(2S)-pyrrolidinyl]-5-thiazolyl]propionic acid]: the Ki in series [1] was 1 nM. Besides, in series [2], the “Dispersibility in Japanese Pharmacopoeia First Solution” value amounted to 1200 µg/mL and the “Dispersibility in Japanese Pharmacopoeia Second Solution” value turned out to be 1300 µg/mL.
On to `C[C@@H]1CN([C@H]2C[C@@H](c3ncc(CCC(=O)O)s3)N(C(=O)Cc3cc(Cl)c(NC(=O)c4cn(C)c5ccccc45)cc3Cl)C2)C[C@H](C)O1` [Example 86, 3-[2-[1-[2,5-Dichloro-4-(1-methyl-3-indolylcarbonylamino)phenylacetyl]-(4S)-[4-(cis-2,6-dimethyl)morpholinyl]-(2S)-pyrrolidinyl]-5-thiazolyl]propionic acid], for which the Ki in series [1] was 1 nM. Further, in series [2], the “Dispersibility in Japanese Pharmacopoeia First Solution” value was found to be 1200 µg/mL and the “Dispersibility in Japanese Pharmacopoeia Second Solution” value was found to be 1400 µg/mL.
On to `C[C@@H]1CN([C@H]2C[C@@H](c3ncc(CCC(=O)O)s3)N(C(=O)Cc3cc(Cl)c(NC(=O)c4csc5ccccc45)cc3F)C2)C[C@H](C)O1` [Example 87, 3-[2-[1-[4-(3-Benzo[b]thiophenylcarbonylamino)-5-chloro-2-fluorophenylacetyl]-(4S)-[4-(cis-2,6-dimethyl)morpholinyl]-(2S)-pyrrolidinyl]-5-thiazolyl]propionic acid], for which the inhibition constant Ki in series [1] was 1 nM. For the same compound, in series [2], the “Dispersibility in Japanese Pharmacopoeia First Solution” value is 1200 µg/mL and the “Dispersibility in Japanese Pharmacopoeia Second Solution” value is 1300 µg/mL.
In the case of `C[C@@H]1CN([C@H]2C[C@@H](c3ncc(CCC(=O)O)s3)N(C(=O)Cc3cc(Cl)c(NC(=O)c4csc5ccccc45)cc3Cl)C2)C[C@H](C)O1` [Example 88, 3-[2-[1-[4-(3-Benzo[b]thiophenylcarbonylamino)-2,5-dichlorophenylacetyl]-(4S)-[4-(cis-2,6-dimethyl)morpholinyl]-(2S)-pyrrolidinyl]-5-thiazolyl]propionic acid], the inhibitory constant (Ki) in series [1] is 1.2 nM. In addition, in series [2], the “Dispersibility in Japanese Pharmacopoeia First Solution” value turned out to be 1200 µg/mL and the “Dispersibility in Japanese Pharmacopoeia Second Solution” value was 1400 µg/mL.
Take `C[C@@H]1CN([C@H]2C[C@@H](c3ncc(CCC(=O)O)s3)N(C(=O)Cc3cc(Cl)c(NC(=O)c4coc5ccccc45)cc3F)C2)C[C@H](C)O1` [Example 89]: the Ki in series [1] was 1.3 nM. Moreover, in series [2], the “Dispersibility in Japanese Pharmacopoeia First Solution” value came to 1100 µg/mL and the “Dispersibility in Japanese Pharmacopoeia Second Solution” value worked out at 1300 µg/mL.
Turning to `C[C@@H]1CN([C@H]2C[C@@H](c3ncc(CCC(=O)O)s3)N(C(=O)Cc3cc(Cl)c(NC(=O)c4coc5ccccc45)cc3Cl)C2)C[C@H](C)O1` [Example 90], the Ki in series [1] is 1.3 nM. Moreover, in series [2], the “Dispersibility in Japanese Pharmacopoeia First Solution” value is 1100 µg/mL and the “Dispersibility in Japanese Pharmacopoeia Second Solution” value came to 1300 µg/mL.
The corresponding values for `CO[C@H]1C[C@@H](c2ncc(CCC(=O)O)s2)N(C(=O)Cc2ccc(Nc3nc4ccccc4o3)c(Cl)c2)C1` [Example 107, 3-[2-[1-[4-(2-Benzoxazolyl)amino-3-chlorophenyl]acetyl-(4S)-methoxy-(2S)-pyrrolidinyl]-5-thiazolyl]propionic acid] are 9.2 nM, 700 µg/mL and 700 µg/mL.
The corresponding values for `CO[C@H]1C[C@@H](c2ncc(CCC(=O)O)s2)N(C(=O)Cc2cc(Cl)c(Nc3nc4ccccc4o3)cc2F)C1` [Example 108] are 19 nM, 730 µg/mL and 730 µg/mL.
For `CO[C@H]1C[C@@H](c2ncc(CCC(=O)O)s2)N(C(=O)Cc2cc(Cl)c(Nc3nc4ccccc4o3)cc2Cl)C1` [Example 109, 3-[2-[1-[4-(2-Benzoxazolyl)amino-2,5-dichlorophenyl)acetyl-(4S)-methoxy-(2S)-pyrrolidinyl]-5-thiazolyl]propionic acid], in series [1], the Ki was 6.3 nM. Moreover, in series [2], the “Dispersibility in Japanese Pharmacopoeia First Solution” value amounted to 480 µg/mL and the “Dispersibility in Japanese Pharmacopoeia Second Solution” value worked out at 750 µg/mL.
Turning to `CO[C@H]1C[C@@H](c2ncc(CCC(=O)O)s2)N(C(=O)Cc2ccc(Nc3nc4ccccc4s3)c(Cl)c2)C1` [Example 110, 3-[2-[1-[4-(2-Benzothiazolyl)amino-3-chlorophenyl]acetyl-(4S)-methoxy-(2S)-pyrrolidinyl]-5-thiazolyl]propionic acid], the Ki in series [1] is 2.5 nM. Besides, in series [2], the “Dispersibility in Japanese Pharmacopoeia First Solution” value is 730 µg/mL and the “Dispersibility in Japanese Pharmacopoeia Second Solution” value was found to be 730 µg/mL.
As to `CO[C@H]1C[C@@H](c2ncc(CCC(=O)O)s2)N(C(=O)Cc2cc(Cl)c(Nc3nc4ccccc4s3)cc2F)C1` [Example 111, 3-[2-[1-[4-(2-Benzothiazolyl)amino-5-chloro-2-fluorophenyl]acetyl-(4S)-methoxy-(2S)-pyrrolidinyl]-5-thiazolyl]propionic acid], the Ki in series [1] is 3.3 nM. In series [2], the “Dispersibility in Japanese Pharmacopoeia First Solution” value was found to be 570 µg/mL and the “Dispersibility in Japanese Pharmacopoeia Second Solution” value turned out to be 750 µg/mL.
`CO[C@H]1C[C@@H](c2ncc(CCC(=O)O)s2)N(C(=O)Cc2cc(Cl)c(Nc3nc4ccccc4s3)cc2Cl)C1` [Example 112, 3-[2-[1-[4-(2-Benzothiazolyl)amino-2,5-dichlorophenyl]acetyl-(4S)-methoxy-(2S)-pyrrolidinyl]-5-thiazolyl]propionic acid]: in series [1], the Ki is 1.9 nM. In series [2], the “Dispersibility in Japanese Pharmacopoeia First Solution” value was found to be 420 µg/mL and the “Dispersibility in Japanese Pharmacopoeia Second Solution” value was 770 µg/mL.
`CO[C@H]1C[C@@H](c2ncc(CCC(=O)O)s2)N(C(=O)Cc2cc(Cl)c(Nc3nc4cc(F)ccc4s3)cc2F)C1` [Example 113, 3-[2-[1-[4-(5-Fluoro-2-benzothiazolyl)amino-5-chloro-2-fluorophenyl]acetyl-(4S)-methoxy-(2S)-pyrrolidinyl]-5-thiazolyl]propionic acid]: in series [1], the Ki was 5 nM. Further, in series [2], the “Dispersibility in Japanese Pharmacopoeia First Solution” value was 180 µg/mL and the “Dispersibility in Japanese Pharmacopoeia Second Solution” value was 770 µg/mL.
